Measured values published in patent US9085514B2, “Unnatural amino acids comprising a cyclooctynyl or trans-cyclooctenyl analog group and uses thereof” (EMBL, priority 2011, dated 2015).

What follows are molecules tested against T1, tRNA^pyl/pylRS^WT (Methanosarcina mazei, UniProt Q8PWY1) (assay: UAA dependent amber suppression in HeLa cells (NLS-mCherry-^TAGGFP, automated microscope), RS^WT). Settings: 1 μM UAA, HeLa nuclei, 24 h after transfection.
T1 construct: expressed in transfected cells; host or cells: HeLa Kyoto cells, plasmid pCMV tRNA^pyl/pylRS^WT
Assay type: cell-based, M. maize
Excerpt: (§1) A single expression plasmid for expression of both tRNA^pyl and the pyrrolysine synthetase pylRS was generated by replacing the tRNA and synthetase of mammalian UAA expression plasmid pSWAN (Liu et al., Nat Methods 2007, 4: 239) with a synthetic gene derived from the plasmid pEVOL tRNA^pyl/pylRS^WT or pEVOL tRNA^pyl/pylRS^AF.
(§2) For mammalian amber suppression studies, a NLS-mCherry-^TAGGFP fusion protein was generated. Due to the nuclear localization sequence (NLS) the expressed protein was targeted to the nucleus. Accordingly, mCherry expression was visible by orange fluorescence in the nucleus signifying the successful transfection of the plasmid. Green fluorescence indicated successful GFP expression due to successful co-transfection of the appropriate tRNA^pyl/pylRS plasmid and suppression of the amber codon in the fused ^TAGGFP.
(§3) UAA concentration dependent GFP expression in the presence of UAA 1, 13, 16 or 17 and RS^WT or RS^AF was analyzed using the following automated microscope procedure.
(§4) HeLa Kyoto cells were grown in DMEM low glucose medium (1 g/l) (Sigma, Munich, Germany) with 10% FBS (Sigma) and 1% L-glutamine. 10−20×10^3 cells per well were seeded in a glass bottom 24-well chamber and cultured overnight. On the next-day, the growth medium was exchanged for fresh one supplied with increasing concentrations of UAA (0, 1, 10, 100, 250, 1000 μM), and the cells were co-transfected (1:1 ratio) with plasmids-carrying NLS-mCherry-^TAGGFP and the respective tRNA^pyl/pylRS pair (RS^WT or RS^AF) using jetPRIME transfection reagent following the manufacturer protocol (Polyplus-transfection. SA, Illkirch, France). 24 h after transfection, cells were stained with Hoechst 33342 (1 μg/ml, 10 min), fixed with 2% paraformaldehyde (15 min, RT) and kept in PBS for imaging. For every UAA concentration, the experiment was repeated twice and in two independently prepared 24 well chambers.
(§5) Microscopy imaging was performed using automated widefield Olympus ScanR microscope (objective UplanApo 20×, 0.70 NA, Hamamatsu Orca R2 CCD camera) in, three channels (Hoechst, GFP, mCherry). For every well at least 25 images (1344×1024 pixels; 433×330 μm, 12-bit) were acquired (exposure times: 30 ms Hoechst, 100 ms mCherry, 100 ms for GFP). Hoechst staining allowed use of the automated focus option of the system. Images were analyzed using the ImageJ macro (http://fiji.sc/wiki/index.php) allowing quantification of GFP fluorescence intensity in the cells showing mCherry fluorescence signal. Hoechst staining was used to threshold and select nuclei. For every detected nucleus, intensities, in the mCherry and GFP channels were quantified. Background intensities in GFP and mCherry channel were measured using one well of each chamber containing cells that were not transfected but stained with Hoechst. Those background values set the threshold to discriminate cells expressing mCherry from the background. For every well the average intensity of GFP (IGFP) in cells positive for GFP and mCherry signals was determined as a measure of successful UAA incorporation. GFP intensities were normalized separately for every UAA based on the maximal observed signal (either for RS^WT or RS^AF).

T1 sequence (Q8PWY1 whole entry): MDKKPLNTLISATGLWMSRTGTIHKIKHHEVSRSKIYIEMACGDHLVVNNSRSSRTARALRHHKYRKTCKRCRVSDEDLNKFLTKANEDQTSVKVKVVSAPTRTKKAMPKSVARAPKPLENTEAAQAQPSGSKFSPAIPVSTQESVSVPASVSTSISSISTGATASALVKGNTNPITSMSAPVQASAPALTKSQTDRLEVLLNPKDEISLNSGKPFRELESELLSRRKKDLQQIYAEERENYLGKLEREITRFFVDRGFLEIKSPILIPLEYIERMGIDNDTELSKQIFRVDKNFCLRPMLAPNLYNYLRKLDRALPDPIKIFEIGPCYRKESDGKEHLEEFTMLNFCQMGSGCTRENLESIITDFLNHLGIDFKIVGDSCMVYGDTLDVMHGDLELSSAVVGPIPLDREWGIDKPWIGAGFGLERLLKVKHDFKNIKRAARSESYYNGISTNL

Structure (SMILES)	IGFP (average intensity of GFP, normalized)
N[C@@H](CCCCNC(=O)OC1C#CCCCCC1)C(=O)O (stereo partly drawn) [compound 1, N-ε-((Cyclooct-2-yn-1-yloxy)carbonyl)-L-lysine]	3.3
N[C@@H](CCCCNC(=O)OCC1CC2C=CC1C2)C(=O)O (some centres unmarked) [compound 17]	4.2
N[C@@H](CCCCNC(=O)OC1CC2C=CC1C2)C(=O)O (some centres unmarked) [compound 16]	1.5
N[C@@H](CCCCNC(=O)OC1CC/C=C/CCC1)C(=O)O (some centres unmarked) [compound 13]	6.3

Same assay, conditions: 10 μM UAA, HeLa nuclei, 24 h after transfection

Structure (SMILES)	IGFP (average intensity of GFP, normalized)
N[C@@H](CCCCNC(=O)OC1C#CCCCCC1)C(=O)O (stereo partly drawn) [compound 1, N-ε-((Cyclooct-2-yn-1-yloxy)carbonyl)-L-lysine]	5.9
N[C@@H](CCCCNC(=O)OCC1CC2C=CC1C2)C(=O)O (some centres unmarked) [compound 17]	2.6
N[C@@H](CCCCNC(=O)OC1CC2C=CC1C2)C(=O)O (some centres unmarked) [compound 16]	6.9
N[C@@H](CCCCNC(=O)OC1CC/C=C/CCC1)C(=O)O (some centres unmarked) [compound 13]	6.9

Same assay, conditions: 100 μM UAA, HeLa nuclei, 24 h after transfection

Structure (SMILES)	IGFP (average intensity of GFP, normalized)
N[C@@H](CCCCNC(=O)OC1C#CCCCCC1)C(=O)O (stereo partly drawn) [compound 1, N-ε-((Cyclooct-2-yn-1-yloxy)carbonyl)-L-lysine]	27.6
N[C@@H](CCCCNC(=O)OCC1CC2C=CC1C2)C(=O)O (some centres unmarked) [compound 17]	4.3
N[C@@H](CCCCNC(=O)OC1CC2C=CC1C2)C(=O)O (some centres unmarked) [compound 16]	9.4
N[C@@H](CCCCNC(=O)OC1CC/C=C/CCC1)C(=O)O (some centres unmarked) [compound 13]	15.9

Same assay, conditions: 250 μM UAA, HeLa nuclei, 24 h after transfection

Structure (SMILES)	IGFP (average intensity of GFP, normalized)
N[C@@H](CCCCNC(=O)OC1C#CCCCCC1)C(=O)O (stereo partly drawn) [compound 1, N-ε-((Cyclooct-2-yn-1-yloxy)carbonyl)-L-lysine]	59.6
N[C@@H](CCCCNC(=O)OCC1CC2C=CC1C2)C(=O)O (some centres unmarked) [compound 17]	5.7
N[C@@H](CCCCNC(=O)OC1CC2C=CC1C2)C(=O)O (some centres unmarked) [compound 16]	171.6
N[C@@H](CCCCNC(=O)OC1CC/C=C/CCC1)C(=O)O (some centres unmarked) [compound 13]	22.3

Same assay, conditions: 1000 μM UAA, HeLa nuclei, 24 h after transfection

Structure (SMILES)	IGFP (average intensity of GFP, normalized)
N[C@@H](CCCCNC(=O)OC1C#CCCCCC1)C(=O)O (stereo partly drawn) [compound 1, N-ε-((Cyclooct-2-yn-1-yloxy)carbonyl)-L-lysine]	57.5
N[C@@H](CCCCNC(=O)OCC1CC2C=CC1C2)C(=O)O (some centres unmarked) [compound 17]	12.8
N[C@@H](CCCCNC(=O)OC1CC2C=CC1C2)C(=O)O (some centres unmarked) [compound 16]	178.3
N[C@@H](CCCCNC(=O)OC1CC/C=C/CCC1)C(=O)O (some centres unmarked) [compound 13]	33.2

Each molecule was assayed against T2, mutant pyrrolysyl tRNA synthetase comprising amino acid substitutions Y306A and Y384F (pylRS^AF) (Methanosarcina mazei, UniProt Q8PWY1, Y306A/Y384F) (assay: Expression of GFP^TAG in E. coli in presence of UAA (amber suppression) with tRNA^pyl/pylRS^AF). Settings: 1 mM UAA, FIG. 6.
T2 construct: expressed in transfected cells; host or cells: E. coli Top10, plasmid pEVOL tRNA^pyl/pylRS^AF
Assay type: cell-based, M. maize

T2 sequence (Q8PWY1 whole entry Y306A/Y384F): as the sequence (Q8PWY1 whole entry) above, with Y306A, Y384F counted along it

Structure (SMILES)	incorporation by RS^AF (GFP fluorescence, SDS-PAGE)
N[C@@H](CCCCNC(=O)OC1C#CCCCCC1)C(=O)O (stereo partly drawn) [compound 1, N-ε-((Cyclooct-2-yn-1-yloxy)carbonyl)-L-lysine]	efficient incorporation
N[C@@H](CCCCNC(=O)OCC1CC2C=CC1C2)C(=O)O (some centres unmarked) [compound 17]	efficient incorporation
N[C@@H](CCCCNC(=O)OC1CC2C=CC1C2)C(=O)O (some centres unmarked) [compound 16]	efficient incorporation
N[C@@H](CCCCNC(=O)OC1CC/C=C/CCC1)C(=O)O (some centres unmarked) [compound 13]	efficient incorporation

Same assay, conditions: 1 mM UAA, pylRS^WT or pylRS^AF, compared to negative control (FIG. 1)

Structure (SMILES)	Expression of GFP^TAG protein
N[C@@H](CCCCNC(=O)OC1C#CCCCCC1)C(=O)O (stereo partly drawn) [compound 1, N-ε-((Cyclooct-2-yn-1-yloxy)carbonyl)-L-lysine]	observed
N[C@@H](CCCCNC(=O)OCCOC1C#CCCCCC1)C(=O)O (stereo partly drawn) [compound 2, N-ε-((2-(Cyclooct-2-yn-1-yloxy)ethoxy)carbonyl)-L-lysine]	observed

These molecules were tested against T3, tRNA^pyl/pylRS^AF (Methanosarcina mazei, UniProt Q8PWY1, Y306A/Y384F) (assay: UAA dependent amber suppression in HeLa cells (NLS-mCherry-^TAGGFP, automated microscope), RS^AF). Settings: 1 μM UAA, HeLa nuclei, 24 h after transfection.
T3 construct: expressed in transfected cells; host or cells: HeLa Kyoto cells, plasmid pCMV tRNA^pyl/pylRS^AF
Assay type: cell-based, M. maize
Excerpt: as §1, §2, §3, §4, §5

T3 sequence (Q8PWY1 whole entry Y306A/Y384F): as the sequence (Q8PWY1 whole entry) above, with Y306A, Y384F counted along it

Structure (SMILES)	IGFP (average intensity of GFP, normalized)
N[C@@H](CCCCNC(=O)OC1C#CCCCCC1)C(=O)O (stereo partly drawn) [compound 1, N-ε-((Cyclooct-2-yn-1-yloxy)carbonyl)-L-lysine]	23.7
N[C@@H](CCCCNC(=O)OCC1CC2C=CC1C2)C(=O)O (some centres unmarked) [compound 17]	10.9
N[C@@H](CCCCNC(=O)OC1CC2C=CC1C2)C(=O)O (some centres unmarked) [compound 16]	5.7
N[C@@H](CCCCNC(=O)OC1CC/C=C/CCC1)C(=O)O (some centres unmarked) [compound 13]	11.1

Same assay, conditions: 10 μM UAA, HeLa nuclei, 24 h after transfection

Structure (SMILES)	IGFP (average intensity of GFP, normalized)
N[C@@H](CCCCNC(=O)OC1C#CCCCCC1)C(=O)O (stereo partly drawn) [compound 1, N-ε-((Cyclooct-2-yn-1-yloxy)carbonyl)-L-lysine]	131.7
N[C@@H](CCCCNC(=O)OCC1CC2C=CC1C2)C(=O)O (some centres unmarked) [compound 17]	57.5
N[C@@H](CCCCNC(=O)OC1CC2C=CC1C2)C(=O)O (some centres unmarked) [compound 16]	46.1
N[C@@H](CCCCNC(=O)OC1CC/C=C/CCC1)C(=O)O (some centres unmarked) [compound 13]	11.0

Same assay, conditions: 100 μM UAA, HeLa nuclei, 24 h after transfection

Structure (SMILES)	IGFP (average intensity of GFP, normalized)
N[C@@H](CCCCNC(=O)OC1C#CCCCCC1)C(=O)O (stereo partly drawn) [compound 1, N-ε-((Cyclooct-2-yn-1-yloxy)carbonyl)-L-lysine]	106.1
N[C@@H](CCCCNC(=O)OCC1CC2C=CC1C2)C(=O)O (some centres unmarked) [compound 17]	76.6
N[C@@H](CCCCNC(=O)OC1CC2C=CC1C2)C(=O)O (some centres unmarked) [compound 16]	114.8
N[C@@H](CCCCNC(=O)OC1CC/C=C/CCC1)C(=O)O (some centres unmarked) [compound 13]	28.8

Same assay, conditions: 250 μM UAA, HeLa nuclei, 24 h after transfection

Structure (SMILES)	IGFP (average intensity of GFP, normalized)
N[C@@H](CCCCNC(=O)OC1C#CCCCCC1)C(=O)O (stereo partly drawn) [compound 1, N-ε-((Cyclooct-2-yn-1-yloxy)carbonyl)-L-lysine]	203.6
N[C@@H](CCCCNC(=O)OCC1CC2C=CC1C2)C(=O)O (some centres unmarked) [compound 17]	163.5
N[C@@H](CCCCNC(=O)OC1CC2C=CC1C2)C(=O)O (some centres unmarked) [compound 16]	100.4
N[C@@H](CCCCNC(=O)OC1CC/C=C/CCC1)C(=O)O (some centres unmarked) [compound 13]	36.5

Same assay, conditions: 1000 μM UAA, HeLa nuclei, 24 h after transfection

Structure (SMILES)	IGFP (average intensity of GFP, normalized)
N[C@@H](CCCCNC(=O)OC1C#CCCCCC1)C(=O)O (stereo partly drawn) [compound 1, N-ε-((Cyclooct-2-yn-1-yloxy)carbonyl)-L-lysine]	118.4
N[C@@H](CCCCNC(=O)OCC1CC2C=CC1C2)C(=O)O (some centres unmarked) [compound 17]	108.9
N[C@@H](CCCCNC(=O)OC1CC2C=CC1C2)C(=O)O (some centres unmarked) [compound 16]	96.9
N[C@@H](CCCCNC(=O)OC1CC/C=C/CCC1)C(=O)O (some centres unmarked) [compound 13]	20.6

Each molecule was assayed against T4, wildtype pyrrolysyl tRNA synthetase (pylRS^WT) (Methanosarcina mazei, UniProt Q8PWY1) (assay: Expression of GFP^TAG in E. coli in presence of UAA (amber suppression) with tRNA^pyl/pylRS^WT). Settings: 1 mM UAA, FIG. 6.
T4 construct: expressed in transfected cells; host or cells: E. coli Top10, plasmid pEVOL tRNA^pyl/pylRS^WT
Assay type: cell-based, M. maize

T4 sequence (Q8PWY1 whole entry): as the sequence (Q8PWY1 whole entry) above

Structure (SMILES)	Incorporation by RS^WT (GFP^TAG expression)
N[C@@H](CCCCNC(=O)OC1CC2C=CC1C2)C(=O)O (some centres unmarked) [compound 16]	highest GFP^TAG expression
